Assay results reported in the supplement of paper PMC11061612.

What was measured:
[1] = system: OCUB-M (Breast Carcinoma); assay: Bliss excess, mean over the matrix (fraction); higher = more synergy
In short: (§1)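 Cell lines in DMEM/F12 or RPMI with 10% FBS were plated in 1536-well plates, held 24 hours at 37°C, 5% CO2, then given two-drug dose matrices for 72 hours (DMSO typically 0.2%). Viability was read by CellTiter-Glo 2.0 luminescence and scaled as inhibition from 0 (vehicle wells) to 1 (blank wells). Combination Emax is the second-highest inhibition in the matrix; Bliss excess is observed combination effect minus expected EA + EB − EA·EB, EA and EB being single-agent effects.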

[2] = system: SNU-C1 (Colorectal Carcinoma); assay: as above
In short: as §1

[3] = system: SCC-9 (Oral Cavity Carcinoma); assay: as above
In short: as §1

[4] = system: NCI-N87 (Gastric Carcinoma); assay: as above
In short: as §1

[5] = system: HSC-2 (Oral Cavity Carcinoma); assay: as above
In short: as §1

[6] = system: EW-3 (Ewing's Sarcoma); assay: as above
In short: as §1

[7] = system: VMRC-LCD (Lung Adenocarcinoma); assay: as above
In short: as §1

[8] = system: H-EMC-SS (Chondrosarcoma); assay: as above
In short: as §1

[9] = system: JHH-7 (Hepatocellular Carcinoma); assay: as above
In short: as §1

[10] = system: LC4-1 (B-Lymphoblastic Leukemia); assay: as above
In short: as §1

[11] = system: NB7 (Neuroblastoma); assay: as above
In short: as §1

[12] = system: GI-1 (Glioblastoma); assay: as above
In short: as §1

[13] = system: TGBC11TKB (Gastric Carcinoma); assay: as above
In short: as §1

[14] = system: KINGS-1 (Low Grade Glioma); assay: as above
In short: as §1

[15] = system: OCUM-1 (Gastric Carcinoma); assay: as above
In short: as §1

[16] = system: OCUB-M (Breast Carcinoma); assay: combination Emax (second highest fraction inhibited in the dose matrix, 72 h); higher = more inhibition; extreme values may be limits of the assay
In short: as §1

[17] = system: SNU-C1 (Colorectal Carcinoma); assay: as above
In short: as §1

[18] = system: SCC-9 (Oral Cavity Carcinoma); assay: as above
In short: as §1

[19] = system: NCI-N87 (Gastric Carcinoma); assay: as above
In short: as §1

[20] = system: HSC-2 (Oral Cavity Carcinoma); assay: as above
In short: as §1

[21] = system: EW-3 (Ewing's Sarcoma); assay: as above
In short: as §1

[22] = system: VMRC-LCD (Lung Adenocarcinoma); assay: as above
In short: as §1

[23] = system: H-EMC-SS (Chondrosarcoma); assay: as above
In short: as §1

[24] = system: JHH-7 (Hepatocellular Carcinoma); assay: as above
In short: as §1

[25] = system: LC4-1 (B-Lymphoblastic Leukemia); assay: as above
In short: as §1

[26] = system: NB7 (Neuroblastoma); assay: as above
In short: as §1

[27] = system: GI-1 (Glioblastoma); assay: as above
In short: as §1

[28] = system: TGBC11TKB (Gastric Carcinoma); assay: as above
In short: as §1

[29] = system: KINGS-1 (Low Grade Glioma); assay: as above
In short: as §1

[30] = system: OCUM-1 (Gastric Carcinoma); assay: as above
In short: as §1
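Throughout, for Bliss excess, mean over the matrix: after 72 h of two-drug dosing.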

| Compound | Bliss excess [1] | Bliss excess [2] | Bliss excess [3] | Bliss excess [4] | Bliss excess [5] | Bliss excess [6] | Bliss excess [7] | Bliss excess [8] | Bliss excess [9] | Bliss excess [10] | Bliss excess [11] | Bliss excess [12] | Bliss excess [13] | Bliss excess [14] | Bliss excess [15] | combination Emax [16] | combination Emax [17] | combination Emax [18] | combination Emax [19] | combination Emax [20] | combination Emax [21] | combination Emax [22] | combination Emax [23] | combination Emax [24] | combination Emax [25] | combination Emax [26] | combination Emax [27] | combination Emax [28] | combination Emax [29] | combination Emax [30] |
| --- | --- | --- | --- | --- | --- | --- | --- | --- | --- | --- | --- | --- | --- | --- | --- | --- | --- | --- | --- | --- | --- | --- | --- | --- | --- | --- | --- | --- | --- | --- |
| Cc1c2c(nn1C)CSCc1cc(n(C)n1)CSc1cc(c3ccccc3c1)OCCCc1c(C(=O)O)n(C)c3c-2c(Cl)ccc13 [AZD5991] + Nc1ccn([C@@H]2O[C@H](CO)[C@@H](O)C2(F)F)c(=O)n1 [Gemcitabine] (first compound max 1 µM, 7x7, partner max 0.3 µM) | 0.0283 | 0.0119 | -0.0216 | -0.0095 | 0.0273 | 0.0096 | 0.0333 | -0.005 | -0.0114 | 0.0158 | 0.0093 | -0.0002 | -0.0006 | -0.0719 | -0.0565 | 1 | 0.449 | 0.237 | 0.61 | 0.992 | 0.935 | 0.539 | 0.594 | 0.314 | 0.975 | 0.844 | 0.86 | 0.929 | 0.195 | 0.656 |
| C[C@@H]1COCCN1c1cc(C2([S@](C)(=N)=O)CC2)nc(-c2ccnc3[nH]ccc23)n1 [AZD6738] + C1CC(C1)(C(=O)[O-])C(=O)[O-].N.N.[Pt+2] [Carboplatin] (first compound max 10 µM, 7x7, partner max 10 µM) | -0.0165 | -0.0744 | -0.0334 | -0.0332 | 0.0029 | 0.0061 | -0.0159 | -0.0251 | -0.0368 | -0.0504 | -0.0115 | 0.0044 | -0.0618 | -0.0713 | -0.0496 | 0.417 | 0.408 | 0.293 | 0.71 | 0.598 | 0.77 | 0.697 | 0.344 | 0.292 | 0.896 | 0.508 | 0.843 | 0.653 | 0.187 | 0.647 |
| C[C@@H]1COCCN1c1cc(C2([S@](C)(=N)=O)CC2)nc(-c2ccnc3[nH]ccc23)n1 [AZD6738] + Nc1ccn([C@@H]2O[C@H](CO)[C@@H](O)C2(F)F)c(=O)n1 [Gemcitabine] (first compound max 10 µM, 7x7, partner max 0.3 µM) | 0.028 | -0.0261 | 0.024 | 0.0265 | 0.0604 | -0.0176 | 0.0526 | 0.006 | 0.085 | 0.0935 | 0.0831 | 0.0797 | -0.0137 | -0.023 | -0.0316 | 0.947 | 0.721 | 0.47 | 0.738 | 0.971 | 0.939 | 0.74 | 0.545 | 0.722 | 0.988 | 0.903 | 0.933 | 0.936 | 0.388 | 0.727 |
| Cc1cc2ncnn2cc1Nc1ncc2c(n1)n(C1CCOCC1)c(=O)n2C [AZD7648] + COc1cc([C@@H]2c3cc4c(cc3[C@@H](O[C@@H]3O[C@@H]5CO[C@@H](C)O[C@H]5[C@H](O)[C@H]3O)[C@H]3COC(=O)[C@H]23)OCO4)cc(OC)c1O [Etoposide] (first compound max 10 µM, 7x7, partner max 10 µM) | 0.0176 | -0.0254 | 0.006 | -0.0062 | 0.128 | 0.0762 | 0.171 | 0.0506 | 0.0547 | 0.0856 | 0.0544 | 0.0946 | -0.0517 | 0.061 | 0.0899 | 0.885 | 0.275 | 0.481 | 0.697 | 0.866 | 0.855 | 0.555 | 0.524 | 0.642 | 1 | 0.909 | 0.907 | 0.0573 | 0.516 | 0.557 |
| C[C@@H](Nc1cc(F)cc(F)c1)c1cc(C(=O)N(C)C)cc2c(=O)cc(N3CCOCC3)oc12 [AZD8186] + C1CN(CCC1(C(=O)N[C@@H](CCO)C2=CC=C(C=C2)Cl)N)C3=NC=NC4=C3C=CN4 [AZD5363] (first compound max 10 µM, 7x7, partner max 10 µM) | 0.019 | -0.0605 | -0.0225 | 0.0125 | -0.0041 | 0.0017 | -0.025 | -0.0314 | -0.0665 | 0.027 | -0.0059 | 0.0399 | -0.0235 | -0.0307 | -0.0101 | 1 | 0.586 | 0.351 | 0.629 | 0.667 | 0.239 | 0.0947 | 0.448 | 0.25 | 0.398 | 0.864 | 0.751 | 0.126 | 0.422 | 0.513 |
| C[C@@H](Nc1cc(F)cc(F)c1)c1cc(C(=O)N(C)C)cc2c(=O)cc(N3CCOCC3)oc12 [AZD8186] + CC(=O)c1c(C)c2cnc(Nc3ccc(N4CCNCC4)cn3)nc2n(C2CCCC2)c1=O [Palbociclib] (first compound max 10 µM, 7x7, partner max 10 µM) | -0.0466 | 0.0065 | 0.0322 | 0.0255 | 0.0014 | 0.0752 | 0.006 | -0.0127 | -0.0086 | 0.202 | 0.211 | 0.0438 | 0.0002 | 0.0318 | 0.0111 | 0.252 | 0.37 | 0.382 | 0.656 | 0.533 | 0.392 | 0.165 | 0.474 | 0.216 | 0.641 | 0.932 | 0.454 | 0.178 | 0.398 | 0.36 |
| C[C@@H](Oc1cc(-c2cnn(C3CCNCC3)c2)cnc1N)c1c(Cl)ccc(F)c1Cl [Crizotinib] + CC1=C(C(=CC=C1)Cl)NC(=O)C2=CN=C(S2)NC3=CC(=NC(=N3)C)N4CCN(CC4)CCO [Dasatinib] (first compound max 10 µM, 7x7, partner max 2 µM) | -0.0666 | -0.056 | 0.0429 | -0.0251 | -0.0097 | -0.0728 | -0.0545 | -0.004 | -0.0142 | -0.0147 | 0.0924 | 0.132 | -0.0343 | 0.0575 | -0.0693 | 0.391 | 0.683 | 0.966 | 0.607 | 0.923 | 0.571 | 0.657 | 0.402 | 0.422 | 0.866 | 0.689 | 0.969 | 0.176 | 0.788 | 0.354 |
| C[C@@H](Oc1cc(-c2cnn(C3CCNCC3)c2)cnc1N)c1c(Cl)ccc(F)c1Cl [Crizotinib] + Cn1cnc2c(F)c(Nc3ccc(Br)cc3Cl)c(C(=O)NOCCO)cc21 [Selumetinib] (first compound max 10 µM, 7x7, partner max 10 µM) | 0.0034 | 0.0325 | 0.0117 | -0.0764 | -0.0618 | -0.134 | -0.0474 | -0.0166 | -0.0152 | -0.0198 | -0.0033 | -0.0355 | 0.0524 | 0.0342 | 0.0251 | 0.458 | 0.892 | 0.919 | 0.383 | 0.551 | 0.525 | 0.665 | 0.405 | 0.56 | 0.896 | 0.443 | 0.602 | 0.557 | 0.799 | 0.936 |
| CS(=O)(=O)CCNCc1ccc(-c2ccc3ncnc(Nc4ccc(OCc5cccc(F)c5)c(Cl)c4)c3c2)o1 [Lapatinib] + Cn1cnc2c(F)c(Nc3ccc(Br)cc3Cl)c(C(=O)NOCCO)cc21 [Selumetinib] (first compound max 10 µM, 7x7, partner max 10 µM) | -0.0507 | -0.0196 | 0.0063 | 0.0451 | -0.0044 | -0.0017 | -0.0369 | -0.0086 | -0.0408 | 0.0675 | -0.0408 | 0.0054 | 0.106 | -0.0191 | -0.0148 | 0.551 | 0.785 | 0.988 | 0.991 | 0.782 | 0.405 | 0.207 | 0.317 | 0.344 | 0.954 | 0.119 | 0.368 | 0.527 | 0.337 | 0.95 |
| O=C(c1cc(Cc2n[nH]c(=O)c3ccccc23)ccc1F)N1CCN(C(=O)C2CC2)CC1 [Olaparib] + CC1(C)CCC(CN2CCN(c3ccc(C(=O)NS(=O)(=O)c4ccc(NCC5CCOCC5)c([N+](=O)[O-])c4)c(Oc4cnc5[nH]ccc5c4)c3)CC2)=C(c2ccc(Cl)cc2)C1 [Venetoclax] (first compound max 10 µM, 7x7, partner max 1 µM) | -0.0483 | -0.0425 | -0.047 | -0.0552 | -0.0219 | 0.0351 | -0.0266 | -0.0572 | -0.032 | 0.0096 | -0.0285 | 0.0518 | -0.0224 | -0.0359 | -0.0472 | 0.17 | 0.0848 | 0.0718 | 0.121 | 0.115 | 0.887 | 0.151 | 0.119 | 0.173 | 1 | 0.301 | 0.265 | 0.183 | 0.131 | 0.172 |
